Measured values as given in article PMC7435819, “Towards the Inhibition of Protein–Protein Interactions (PPIs) in STAT3: Insights into a New Class of Benzothiadiazole Derivatives” (Molecules, 2020).
Where two headings read alike, the source gives them in different places.

Key:
[1] = biological target: T1, STAT3 (Homo sapiens, UniProt P40763); test: AlphaScreen-based competitive binding assay, STAT3 SH2 domain vs FITC-GpYLPQTV; details: for % of control, STAT3 AlphaScreen: WT
T1 construct: a truncated form of STAT3 (136-705) was constructed and chromatographically purified; made in house
T1 sequence (P40763 136-705): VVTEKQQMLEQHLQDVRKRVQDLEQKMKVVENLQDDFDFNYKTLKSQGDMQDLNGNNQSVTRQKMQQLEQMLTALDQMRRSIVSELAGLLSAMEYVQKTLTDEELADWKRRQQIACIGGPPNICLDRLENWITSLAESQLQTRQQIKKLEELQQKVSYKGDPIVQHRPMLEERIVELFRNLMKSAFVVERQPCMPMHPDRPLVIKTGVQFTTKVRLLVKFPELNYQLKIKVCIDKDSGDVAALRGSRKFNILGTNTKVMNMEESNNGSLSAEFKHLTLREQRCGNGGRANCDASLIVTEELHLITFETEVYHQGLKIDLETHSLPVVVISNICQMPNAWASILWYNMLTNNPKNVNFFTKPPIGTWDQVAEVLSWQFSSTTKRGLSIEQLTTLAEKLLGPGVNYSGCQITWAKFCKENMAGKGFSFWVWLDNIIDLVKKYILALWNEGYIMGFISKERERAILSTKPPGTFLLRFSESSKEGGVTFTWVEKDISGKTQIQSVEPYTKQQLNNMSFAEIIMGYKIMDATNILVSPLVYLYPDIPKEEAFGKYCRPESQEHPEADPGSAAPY
Text: (§1) AlphaScreen is an in vitro competitive binding test used to identify compounds that are able to inhibit the binding of proteins containing an SH2 domain to their corresponding phosphopeptides (5-carboxyfluorescein (FITC)-GpYLPQTV for STAT3 and FITC-GpYDKPHVL for STAT1) (Table 2).
(§2) AlphaScreen is a bead-based non-radioactive assay system for the detection of biomolecular interactions in a microtiter plate format. The binding of biological partners brings donor and acceptor beads into close proximity and, as a result, a fluorescent signal between 520 and 620 nm was produced. The AlphaScreen-based assays were performed in a final reaction volume of 25 μL of the assay buffer containing 10 mM HEPES–NaOH (pH 7.4), 50 mM NaCl, 1 mM EDTA (pH 8.0), 0.1% NP-40, and 10 ng/μL bovine serum albumin (BSA) in a 96-well microtiter plate at 25 °C. The pTyr peptide probes used in this study were 5-carboxyfluorescein (FITC)-GpYLPQTV for STAT3 and (FITC)-GpYDKPHVL for STAT1. Plasmid construction and protein expression were performed as previously described; the experimental method is briefly summarized as follows. Considering that the expression of the full-length protein is troublesome, a truncated form of STAT3 (136-705) was constructed and chromatographically purified (AKTA FPLC system; GE Healthcare Bio-Sciences, Piscataway, NJ, USA). The soluble STAT3 fraction was loaded on a HisTrap™ column (GE Healthcare Bio-Sciences) and eluted with an imidazole gradient (50 mM Tris–HCl pH 7.4, 300 mM NaCl, 0.2 mM EDTA, 0.1% (w/v) NP-40, 5 mM β-mercaptoethanol, 10% (v/v) glycerol, and 10–300 mM imidazole). An SDS-PAGE stained with Coomassie Brilliant Blue (CBB) was performed to check the purity of the protein (see Figure S71). Subsequently, the protein was dialyzed (10 mM HEPES-NaOH pH 7.4, 50 mM NaCl, 10 mM β-mercaptoethanol, 0.1 mM EGTA, 0.02% (w/v) NP-40, 0.2 mM phenylmethylsulphonyl fluoride (PMSF), and 10% (v/v) glycerol).
(§3) Firstly, 75 nM of each SH2-containing protein were incubated with the test compound (at the following concentrations: 1, 3, 10, and 30 µM) for 15 min. Each protein sample was then incubated for 90 min with 50 nM of its corresponding FITC-pTyr peptide and simultaneously mixed with streptavidin-coated donor beads and anti-FITC acceptor beads before detection at 570 nm using EnVison Xcite (PerkinElmer, Waltham, MA, USA).

[2] = biological target: T2, STAT3 Cys687A (Homo sapiens, UniProt P40763, C687A); test: AlphaScreen-based assay, STAT3 single-cysteine mutant Cys687A; format: binding; details: for % of control, STAT3 AlphaScreen: Cys687A
T2 construct: a truncated form of STAT3 (136-705) was constructed and chromatographically purified; made in house
T2 sequence (P40763 136-705 C687A): as the sequence (P40763 136-705) above, with C552A counted along it
Method: (§4) Furthermore, to gain insight into the activity of compound 1, its interaction with the cysteine residues located in the vicinities of the SH2 domain (Figure 3) was investigated and evaluated by an AlphaScreen-based assay using different mutants (Table 3).
(§5) The same procedure was used to evaluate compound 1 activity versus STAT3 single-cysteine-residue mutants (Cys468A, Cys542A, Cys550A, Cys687A, and Cys712A). Briefly, 3 µL of compound 1 in DMSO (at 0.3, 1, 3, 10 and 30 µM concentration) were premixed with 1 µL of L-Cys in PBS and 16 µL of an AlphaScreen buffer. Then, the mixture was immediately (<5 min) mixed with the STAT3 mutant solution before adding the FITC-peptide.

[3] = set-up: method as in doi:10.1039/P29840001851; details: cited from earlier work
[4] = biological target: Grb2 (Homo sapiens, UniProt P62993); test: AlphaScreen-based assay, Grb2 (other SH2 domain-containing protein); format: binding; details: 30 µM
Chain of Grb2 (P62993 whole entry, species assumed, the tested form may be a part): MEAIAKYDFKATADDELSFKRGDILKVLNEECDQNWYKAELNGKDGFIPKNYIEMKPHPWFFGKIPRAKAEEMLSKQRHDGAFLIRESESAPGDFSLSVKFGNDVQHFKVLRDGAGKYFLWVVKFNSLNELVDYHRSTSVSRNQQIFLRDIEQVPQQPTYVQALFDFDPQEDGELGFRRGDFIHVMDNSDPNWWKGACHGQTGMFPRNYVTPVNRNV
Method: as §1, §3

[5] = biological target: T3, STAT3 Cys712A (Homo sapiens, UniProt P40763, C712A); test: AlphaScreen-based assay, STAT3 single-cysteine mutant Cys712A; format: binding; details: for % of control, STAT3 AlphaScreen: Cys712A
T3 construct: made in house
T3 sequence (P40763 whole entry C712A): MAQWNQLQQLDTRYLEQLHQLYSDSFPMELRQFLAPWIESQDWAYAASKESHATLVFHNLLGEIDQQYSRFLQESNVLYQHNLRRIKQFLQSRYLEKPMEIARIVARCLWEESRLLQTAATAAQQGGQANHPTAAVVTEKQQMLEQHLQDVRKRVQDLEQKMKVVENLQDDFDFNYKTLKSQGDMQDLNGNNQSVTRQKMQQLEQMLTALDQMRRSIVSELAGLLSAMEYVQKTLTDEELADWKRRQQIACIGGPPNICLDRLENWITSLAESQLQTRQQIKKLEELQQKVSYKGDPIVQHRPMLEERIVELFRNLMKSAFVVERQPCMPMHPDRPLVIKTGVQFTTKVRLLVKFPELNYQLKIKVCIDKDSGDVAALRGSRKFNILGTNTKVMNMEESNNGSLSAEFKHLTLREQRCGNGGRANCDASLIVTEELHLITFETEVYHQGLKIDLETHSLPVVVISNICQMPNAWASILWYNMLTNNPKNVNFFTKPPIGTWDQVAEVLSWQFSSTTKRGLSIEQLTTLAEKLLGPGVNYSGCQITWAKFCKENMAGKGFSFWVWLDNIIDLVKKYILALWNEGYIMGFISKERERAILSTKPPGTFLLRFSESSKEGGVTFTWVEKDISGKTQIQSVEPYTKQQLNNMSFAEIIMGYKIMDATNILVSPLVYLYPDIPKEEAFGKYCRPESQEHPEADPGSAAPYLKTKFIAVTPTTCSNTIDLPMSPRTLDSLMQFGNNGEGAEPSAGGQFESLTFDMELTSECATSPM
Method: as §4, §5

[6] = biological target: T4, STAT3 Cys550A (Homo sapiens, UniProt P40763, C550A); test: AlphaScreen-based assay, STAT3 single-cysteine mutant Cys550A; format: binding; details: for % of control, STAT3 AlphaScreen: Cys550A
T4 construct: a truncated form of STAT3 (136-705) was constructed and chromatographically purified; made in house
T4 sequence (P40763 136-705 C550A): as the sequence (P40763 136-705) above, with C415A counted along it
Method: as §4, §5

[7] = biological target: T5, STAT1 (Homo sapiens, UniProt P42224); test: AlphaScreen-based competitive binding assay, STAT1 vs FITC-GpYDKPHVL; details: read-out: STAT1 inhibition: IC50
T5 sequence (P42224 1-750): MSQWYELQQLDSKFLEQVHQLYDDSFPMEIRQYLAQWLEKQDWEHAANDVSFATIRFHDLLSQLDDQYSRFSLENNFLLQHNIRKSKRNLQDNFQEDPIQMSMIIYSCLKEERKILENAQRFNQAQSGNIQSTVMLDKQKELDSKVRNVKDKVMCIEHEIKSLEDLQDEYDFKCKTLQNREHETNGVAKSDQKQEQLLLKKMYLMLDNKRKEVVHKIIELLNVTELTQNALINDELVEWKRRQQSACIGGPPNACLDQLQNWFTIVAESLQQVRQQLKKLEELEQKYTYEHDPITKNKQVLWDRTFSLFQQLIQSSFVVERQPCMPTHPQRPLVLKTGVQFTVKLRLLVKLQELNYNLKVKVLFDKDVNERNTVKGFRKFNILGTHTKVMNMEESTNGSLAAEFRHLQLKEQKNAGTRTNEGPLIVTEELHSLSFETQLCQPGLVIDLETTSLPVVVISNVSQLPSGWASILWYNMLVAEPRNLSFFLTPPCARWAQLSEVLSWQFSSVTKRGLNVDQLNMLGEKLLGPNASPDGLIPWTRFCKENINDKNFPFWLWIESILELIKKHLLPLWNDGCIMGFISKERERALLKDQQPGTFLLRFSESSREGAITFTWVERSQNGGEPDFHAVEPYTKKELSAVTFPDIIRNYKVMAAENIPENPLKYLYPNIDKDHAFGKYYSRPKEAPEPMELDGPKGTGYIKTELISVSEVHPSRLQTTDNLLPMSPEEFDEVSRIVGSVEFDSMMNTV
Text: as §1
as §2, with “The soluble STAT3 fraction was loaded on a HisTrap™ column (GE Healthcare Bio-Sciences) and eluted with an imidazole gradient (50 mM Tris–HCl pH 7.4, 300 mM NaCl, 0.2 mM EDTA, 0.1% (w/v) NP-40, 5 mM β-mercaptoethanol, 10% (v/v) glycerol, and 10–300 mM imidazole). An SDS-PAGE stained with Coomassie Brilliant Blue (CBB) was performed to check the purity of the protein (see Figure S71). Subsequently, the protein was dialyzed (10 mM HEPES-NaOH pH 7.4, 50 mM NaCl, 10 mM β-mercaptoethanol, 0.1 mM EGTA, 0.02% (w/v) NP-40, 0.2 mM phenylmethylsulphonyl fluoride (PMSF), and 10% (v/v) glycerol).” left out

[8] = biological target: T6, STAT3 Cys542A (Homo sapiens, UniProt P40763, C542A); test: AlphaScreen-based assay, STAT3 single-cysteine mutant Cys542A; format: binding; details: for % of control, STAT3 AlphaScreen: Cys542A
T6 construct: a truncated form of STAT3 (136-705) was constructed and chromatographically purified; made in house
T6 sequence (P40763 136-705 C542A): as the sequence (P40763 136-705) above, with C407A counted along it
Method: as §4, §5

[9] = biological target: T7, STAT3 Cys468A (Homo sapiens, UniProt P40763, C468A); test: AlphaScreen-based assay, STAT3 single-cysteine mutant Cys468A; format: binding; details: for % of control, STAT3 AlphaScreen: Cys468A
T7 construct: a truncated form of STAT3 (136-705) was constructed and chromatographically purified; made in house
T7 sequence (P40763 136-705 C468A): as the sequence (P40763 136-705) above, with C333A counted along it
Method: as §4, §5

Cc1cc2c(cc1C)NS(=O)(=O)N2 [Compound 1, 5,6-Dimethyl-1H,3H-2,1,3-benzothiadiazole-2,2-dioxide]
inhibition at 30 µM ([1]; 30 µM, n.a.: not active, read-out: STAT3 % Inhibition (30 µM)): 96.5 ± 1.1% | IC50 ([1]; STAT3 wild-type (WT), read-out: STAT3 inhibition: IC50): 15.8 µM | inhibition at 30 µM ([1]; Table 1, AlphaScreen-based assay at 30 µM, STAT3-SH2 domain, read-out: % Inhibition): 96.5% | % of control, STAT3 AlphaScreen ([1]; [1] 1 μM): 98.6 % of control | % of control, STAT3 AlphaScreen ([1]; [1] 3 μM): 94.1 % of control | % of control, STAT3 AlphaScreen ([1]; [1] 10 μM): 72.4 % of control | % of control, STAT3 AlphaScreen ([1]; [1] 30 μM): 18.4 % of control | % of control, STAT3 AlphaScreen ([2]; [1] 1 μM): 93.3 % of control | % of control, STAT3 AlphaScreen ([2]; [1] 3 μM): 89.7 % of control | % of control, STAT3 AlphaScreen ([2]; [1] 10 μM): 78.3 % of control | % of control, STAT3 AlphaScreen ([2]; [1] 30 μM): 51.9 % of control | IC50 ([2]; mutated Cys687A): > 30 µM | pKa [3]: 6.88 ± 0.03 | inhibition versus Grb2 [4]: 23% | % of control, STAT3 AlphaScreen ([5]; [1] 1 μM): 113.4 % of control | % of control, STAT3 AlphaScreen ([5]; [1] 3 μM): 112.4 % of control | % of control, STAT3 AlphaScreen ([5]; [1] 10 μM): 110.5 % of control | % of control, STAT3 AlphaScreen ([5]; [1] 30 μM): 108.0 % of control | IC50 ([5]; mutated Cys712A): > 30 µM | % of control, STAT3 AlphaScreen ([6]; [1] 1 μM): 132.9 % of control | % of control, STAT3 AlphaScreen ([6]; [1] 3 μM): 136.0 % of control | % of control, STAT3 AlphaScreen ([6]; [1] 10 μM): 135.2 % of control | % of control, STAT3 AlphaScreen ([6]; [1] 30 μM): 124.7 % of control | IC50 ([6]; mutated Cys550A): > 30 µM | IC50 [7]: > 50 µM | % of control, STAT3 AlphaScreen ([8]; [1] 1 μM): 102.5 % of control | % of control, STAT3 AlphaScreen ([8]; [1] 3 μM): 101.3 % of control | % of control, STAT3 AlphaScreen ([8]; [1] 10 μM): 98.1 % of control | % of control, STAT3 AlphaScreen ([8]; [1] 30 μM): 92.3 % of control | IC50 ([8]; mutated Cys542A): > 30 µM | melting point: 148 °C | % of control, STAT3 AlphaScreen ([9]; [1] 1 μM): 111.8 % of control | % of control, STAT3 AlphaScreen ([9]; [1] 3 μM): 108.3 % of control | % of control, STAT3 AlphaScreen ([9]; [1] 10 μM): 101.1 % of control | % of control, STAT3 AlphaScreen ([9]; [1] 30 μM): 79.7 % of control | IC50 ([9]; mutated Cys468A): > 30 µM
